Earlier results, collected in US20060172014A1, “Treatment of lung cancer with active vitamin D compounds in combination with other treatments” (Novacea, Inc., priority 2003, published 2006).

Assays:
[1] = system: patients with refractory malignancies; settings: weekly HDPA of calcitriol; Beer et al.
[2] = system: lung cancer cell line

## C=C1/C(=C\C=C2/CCC[C@]3(C)[C@@H]([C@H](C)CCCC(C)(C)O)CC[C@@H]23)C[C@@H](O)C[C@@H]1O [calcitriol, 1α,25-dihydroxyvitamin D3]
[1]
  Dose-limiting toxicity: no dose-limiting toxicity
  Mean peak calcitriol levels: within the therapeutic range
[2]; cell line containing high levels of vitamin D receptor
  Growth of lung cancer cell line: inhibit the growth
[2]; cell lines having insignificant levels of the receptor
  Growth of lung cancer cell lines: not
